PubChem BioAssay (NCI)
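How tested: cells in 96-well plates exposed to compound for 48 hours at five concentrations. Here, GI50 denotes the concentration required for 50% inhibition of growth. Definition used: TGI = concentration required for complete inhibition of growth.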

Columns and labels:
Experiment in all cases: NCI tumour cell line growth inhibition, 48 h
NCI-H522 lung = test system: NCI-H522 lung
HCT-116 colon = test system: HCT-116 colon
A498 renal = test system: A498 renal
HS 578T breast = test system: HS 578T breast
CCRF-CEM leukemia = test system: CCRF-CEM leukemia
UO-31 renal = test system: UO-31 renal
SF-539 CNS = test system: SF-539 CNS
NCI-H226 lung = test system: NCI-H226 lung
HOP-62 NSCLC = test system: HOP-62 NSCLC
HCT-15 colon = test system: HCT-15 colon

SMILES	GI50 (NCI-H522 lung) [µM]	TGI (NCI-H522 lung) [µM]	GI50 (HCT-116 colon) [µM]	TGI (HCT-116 colon) [µM]	GI50 (A498 renal) [µM]	TGI (A498 renal) [µM]	GI50 (HS 578T breast) [µM]	TGI (HS 578T breast) [µM]	GI50 (CCRF-CEM leukemia) [µM]	TGI (CCRF-CEM leukemia) [µM]	GI50 (UO-31 renal) [µM]	TGI (UO-31 renal) [µM]	GI50 (SF-539 CNS) [µM]	TGI (SF-539 CNS) [µM]	GI50 (NCI-H226 lung) [µM]	TGI (NCI-H226 lung) [µM]	GI50 (HOP-62 NSCLC) [µM]	TGI (HOP-62 NSCLC) [µM]	GI50 (HCT-15 colon) [µM]	TGI (HCT-15 colon) [µM]
COc1cccc(-c2nc(-c3ccc(NS(=O)(=O)c4ccccc4)cc3)[nH]c2-c2ccnc(Br)c2)c1	2.93	> 100	2.09	5.46	1.25	5.03	1.71	5.17	3.14	> 100	2.29	6.89	2.53	8.03	2.91	> 100	3.39	> 100		
COc1ccc2c(CN3CCC(CO)CC3)cc3cc4c(cc3c2c1)OCO4	0.135	0.363	0.069	0.529	0.211	0.554	0.5	12.4		0.373	0.252	19	0.254	1.64	0.225	0.56	0.272	2.03	0.17	3.49
OCc1ccc(N(Cc2ccc(F)cc2)C2CCC2)cc1Cl	13	28.6	0.115	3.73	0.0332	0.156	19	45.4	14.9	34.6	1.88	15.2	16.7	31.3	0.0569	0.193	2.05	17.5	10.9	25.7
COc1cc2c3c(n(CCCO)c(=O)c2cc1OC)-c1cc2c(cc1C3=O)OCO2	> 40.8	> 100	2.96	> 38.6	42.8	> 73	52	> 100	3.54	14.4	> 21.2	> 100		6.79	3.85	50.9	4.28	78.3	33.4	> 100
COc1cc(-c2cc(C(=O)Nc3nc4ccccc4s3)nc3cc(-c4ccccc4)nn23)cc(OC)c1OC	1.96	7.82	4.51	> 100	9.29	36.7	4.7	> 100	54.1	> 100	> 100	> 100	1.31	9.09	27.5	> 100	9.87	27.2	> 100	> 100
O=P(Oc1ccccc1)(Oc1ccccc1)C(O)c1ccccc1 (centres undefined)	25.4	> 100	65.9	> 100	34.8	> 100	45.9	> 100	> 100	> 100	29.8	> 100	> 100	> 100			39.3	> 100	> 100	> 100
